Laboratory results from patent US11168073B2, “3,3-difluoroallylamines or salts thereof and pharmaceutical compositions comprising the same” (YUHAN CORPORATION, priority 2018, dated 2021).
Where a name gives a salt, the structure may show the parent alone. Read-outs that look alike come from different tables or passages of the source.

Tests used:
Assay type in all cases: biochemical
[1] = biological target: T1, recombinant human VAP-1 (Homo sapiens, UniProt Q16853); test: Activity evaluation on recombinant human VAP-1 (Amplex Red/HRP-coupled hydrogen peroxide assay, benzylamine substrate); details: read-out: Inhibitory Activity (IC50, nM) human VAP-1
T1 construct: purchased R&D systems
T1 sequence (Q16853 1-763): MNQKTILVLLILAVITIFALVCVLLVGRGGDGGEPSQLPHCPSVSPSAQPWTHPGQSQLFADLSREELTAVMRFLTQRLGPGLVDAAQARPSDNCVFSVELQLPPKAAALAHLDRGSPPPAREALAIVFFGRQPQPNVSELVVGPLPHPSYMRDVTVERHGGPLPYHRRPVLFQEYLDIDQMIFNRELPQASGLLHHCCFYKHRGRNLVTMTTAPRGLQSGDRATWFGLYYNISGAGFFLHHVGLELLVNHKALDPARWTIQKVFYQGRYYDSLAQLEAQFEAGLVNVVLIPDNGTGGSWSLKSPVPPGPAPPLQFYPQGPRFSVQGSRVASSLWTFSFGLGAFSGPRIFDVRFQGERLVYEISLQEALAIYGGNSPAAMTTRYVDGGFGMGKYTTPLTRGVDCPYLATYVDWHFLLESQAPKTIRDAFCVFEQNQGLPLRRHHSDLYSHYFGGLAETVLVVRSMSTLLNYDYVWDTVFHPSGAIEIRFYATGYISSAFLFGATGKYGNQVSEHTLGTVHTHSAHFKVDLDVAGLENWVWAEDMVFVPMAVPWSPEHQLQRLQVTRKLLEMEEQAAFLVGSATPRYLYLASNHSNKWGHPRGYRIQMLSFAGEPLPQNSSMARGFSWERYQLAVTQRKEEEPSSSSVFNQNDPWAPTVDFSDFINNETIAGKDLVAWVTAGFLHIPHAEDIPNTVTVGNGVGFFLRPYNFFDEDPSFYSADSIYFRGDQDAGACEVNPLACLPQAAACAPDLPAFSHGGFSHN
Experimental: (§1) The compounds according to the present technology were evaluated in terms of activity on recombinant human VAP-1 (R&D systems) by measuring the level of hydrogen peroxide in horseradish peroxidase (HRP)-coupled reaction using Amplex Red Hydrogen Peroxide Assay Kit (Molecular Probes, Invitrogen, USA). The experiment was carried out at room temperature using benzylamine as a substrate. In the HRP-coupled reaction, hydrogen peroxide oxidation of 10-acetyl-3,7-dihydroxyphenoxazine (Amplex Red reagent) produces resorufin, which is a highly fluorescent compound. Briefly, the test compound was dissolved in dimethyl sulfoxide (DMSO) at a concentration of 20 mM. The dose-response assessment was made by 1:3 serial dilution in DMSO, thereby creating a 8 point curve. The concentration of the upper part was controlled according to the efficacy of the compounds, followed by the dilution with a reaction buffer solution to obtain a final DMSO concentration of less than 1%. To each well of a 96 black well plate, human VAP-1 purified in 50 mM sodium phosphate buffer solution (pH7.4) was added. The test compounds dissolved in DMSO were incubated with the human VAP-1 enzymes at 37° C. for 30 minutes. After 30-minute incubation, each well was added with a reaction mixture containing 200 uM Amplex Red reagent prepared from 50 mM sodium phosphate buffer solution (pH 7.4), 1 mM benzylamine, and 1 U/mL HRP. Fluorescence intensity was measured at several time points during 1-2 hours using a microplate reader (Flexstation3, Molecular Devices) under the wavelength condition exciting at 544 nm and reading the emission at 590 nm. The inhibitory effect of the compounds was measured as a decrease (%) in the signal rate as compared to the control group without any inhibitor (only diluted DMSO). Data was fixed to a logistic model with four variables and IC50 value was calculated using GraphPad Prism program.

[2] = biological target: T2, recombinant human MAO-A (monoamine oxidase-A) (Homo sapiens, UniProt P21397); test: Activity evaluation on recombinant human MAO-A (Amplex Red/HRP-coupled assay, 0.5 mM tyramine substrate); details: read-out: Inhibitory Activity (IC50, nM) MAO-A
T2 construct: purchased Sigma-Aldrich
T2 sequence (P21397 1-527): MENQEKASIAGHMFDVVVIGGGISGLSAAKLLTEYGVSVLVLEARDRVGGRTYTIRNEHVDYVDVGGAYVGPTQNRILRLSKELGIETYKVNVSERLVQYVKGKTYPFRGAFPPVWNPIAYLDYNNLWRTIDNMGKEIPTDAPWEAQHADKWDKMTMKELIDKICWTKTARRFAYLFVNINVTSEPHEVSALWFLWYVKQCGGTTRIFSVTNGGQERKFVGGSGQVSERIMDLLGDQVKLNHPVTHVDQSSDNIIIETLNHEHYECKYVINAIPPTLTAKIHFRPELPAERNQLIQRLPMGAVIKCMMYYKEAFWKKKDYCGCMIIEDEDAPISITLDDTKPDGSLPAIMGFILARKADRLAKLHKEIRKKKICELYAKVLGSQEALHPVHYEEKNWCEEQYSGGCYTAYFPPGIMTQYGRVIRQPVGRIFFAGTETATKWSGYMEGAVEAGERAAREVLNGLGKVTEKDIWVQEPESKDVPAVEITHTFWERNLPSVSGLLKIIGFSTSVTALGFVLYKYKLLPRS
Experimental: as §1
(§2) In addition, the compounds according to the present technology were evaluated in terms of activity on a recombinant human MAO-A (monoamine oxidase-A, Sigma-Aldrich) and a recombinant human MAO-B (monoamine oxidase-B, Sigma-Aldrich) by using as substrates, 0.5 mM tyramine and 1 mM benzylamine, respectively, with a method similar to the activity evaluation method for recombinant human VAP-1. The compounds according to the present technology were also evaluated in terms of activity on a recombinant human DAO (diamine oxidase, R&D systems) by using as a substrate 1 mM putrescine with a method similar to the activity evaluation method for recombinant human VAP-1.

[3] = biological target: T3, recombinant human MAO-B (monoamine oxidase-B) (Homo sapiens, UniProt P27338); test: Activity evaluation on recombinant human MAO-B (Amplex Red/HRP-coupled assay, 1 mM benzylamine substrate); details: read-out: Inhibitory Activity (IC50, nM) MAO-B
T3 construct: purchased Sigma-Aldrich
T3 sequence (P27338 1-520): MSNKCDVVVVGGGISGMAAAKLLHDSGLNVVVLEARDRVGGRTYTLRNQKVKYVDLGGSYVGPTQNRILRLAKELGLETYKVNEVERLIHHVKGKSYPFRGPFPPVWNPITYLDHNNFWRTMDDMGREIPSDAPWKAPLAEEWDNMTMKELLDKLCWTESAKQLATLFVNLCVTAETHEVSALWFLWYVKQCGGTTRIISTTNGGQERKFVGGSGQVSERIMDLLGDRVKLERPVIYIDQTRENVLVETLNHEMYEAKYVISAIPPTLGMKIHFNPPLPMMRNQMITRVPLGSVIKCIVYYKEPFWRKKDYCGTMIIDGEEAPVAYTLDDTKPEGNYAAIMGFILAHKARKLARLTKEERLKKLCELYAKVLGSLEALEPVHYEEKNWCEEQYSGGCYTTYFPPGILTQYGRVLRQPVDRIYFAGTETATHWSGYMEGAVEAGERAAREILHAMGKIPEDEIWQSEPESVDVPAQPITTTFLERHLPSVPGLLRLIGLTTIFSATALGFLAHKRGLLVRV
Experimental: as §1, §2

[4] = biological target: T4, recombinant human DAO (diamine oxidase) (Homo sapiens, UniProt P19801); test: Activity evaluation on recombinant human DAO (Amplex Red/HRP-coupled assay, 1 mM putrescine substrate); details: read-out: Inhibitory Activity (IC50, nM) DAO
T4 construct: purchased R&D systems
T4 sequence (P19801 20-751): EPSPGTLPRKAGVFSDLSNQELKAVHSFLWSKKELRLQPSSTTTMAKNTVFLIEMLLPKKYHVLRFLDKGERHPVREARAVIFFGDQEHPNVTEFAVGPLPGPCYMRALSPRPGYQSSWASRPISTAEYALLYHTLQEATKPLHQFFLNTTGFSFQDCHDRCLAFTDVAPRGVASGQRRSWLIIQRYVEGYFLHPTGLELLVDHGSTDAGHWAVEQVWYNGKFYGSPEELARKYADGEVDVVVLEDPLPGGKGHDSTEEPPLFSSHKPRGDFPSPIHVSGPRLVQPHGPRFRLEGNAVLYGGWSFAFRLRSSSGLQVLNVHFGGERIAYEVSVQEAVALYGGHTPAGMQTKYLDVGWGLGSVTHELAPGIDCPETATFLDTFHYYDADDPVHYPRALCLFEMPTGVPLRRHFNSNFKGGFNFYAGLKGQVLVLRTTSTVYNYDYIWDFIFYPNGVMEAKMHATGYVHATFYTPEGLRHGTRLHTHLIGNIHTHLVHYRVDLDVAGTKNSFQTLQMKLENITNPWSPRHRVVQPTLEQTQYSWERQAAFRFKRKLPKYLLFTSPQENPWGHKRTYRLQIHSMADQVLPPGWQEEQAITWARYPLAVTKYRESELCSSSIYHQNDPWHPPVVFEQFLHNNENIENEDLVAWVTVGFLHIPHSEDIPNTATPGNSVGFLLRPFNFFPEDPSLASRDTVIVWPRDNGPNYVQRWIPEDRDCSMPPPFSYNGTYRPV
Experimental: as §1, §2

[5] = recombinant human VAP-1, 30 min preincubation at 37° C., 1 mM benzylamine
[6] = recombinant human VAP-1, benzylamine substrate

| SMILES | IC50 [1, 5] [nM] | IC50 ([2]; 0.5 mM tyramine) [nM] | IC50 ([3]; 1 mM benzylamine) [nM] | IC50 ([4]; 1 mM putrescine) [nM] | IC50 [1, 6] [nM] | IC50 ([2]; 0.5 mM tyramine substrate) [nM] | IC50 ([3]; 1 mM benzylamine substrate) [nM] | IC50 ([4]; 1 mM putrescine substrate) [nM] |
| --- | --- | --- | --- | --- | --- | --- | --- | --- |
| Cc1cc(-c2ccc3c(c2)CCC(=O)N3C)cnc1-n1cnn(CC(CN)=C(F)F)c1=O [Example 74, 6-[6-[1-[2-(aminomethyl)-3,3-difluoro-allyl]-5-oxo-1,2,4-triazol-4-yl]-5-methyl-3-pyridyl]-1-methyl-3,4-dihydroquinolin-2-one Trifluoroacetate] | 0.3 | > 100000 | 7500 | 6500 | – | – | – | – |
| NCC(Cn1ncn(-c2cccc(Br)n2)c1=O)=C(F)F [Example 8, 2-[2-(aminomethyl)-3,3-difluoro-allyl]-4-(6-bromo-2-pyridyl)-1,2,4-triazol-3-one Trifluoroacetate] | 2.2 | > 100000 | > 100000 | 10500 | – | – | – | – |
| Cc1cc(C#Cc2ccc3c(c2)CCC(=O)N3)cnc1-n1cnn(CC(CN)=C(F)F)c1=O [Example 249, 6-[2-[6-[1-[2-(aminomethyl)-3,3-difluoro-allyl]-5-oxo-1,2,4-triazol-4-yl]-5-methyl-3-pyridyl]ethynyl]-3,4-dihydro-1H-quinolin-2-one Trifluoroacetate] | – | – | – | – | 0.9 | > 100000 | 3100 | 3900 |
| CCn1cc(-c2cccc(-n3cnn(CC(CN)=C(F)F)c3=O)c2C)cn1 [Example 260, 2-[2-(aminomethyl)-3,3-difluoro-allyl]-4-[3-(1-ethylpyrazol-4-yl)-2-methyl-phenyl]-1,2,4-triazol-3-one Trifluoroacetate] | – | – | – | – | 3.7 | > 100000 | > 100000 | > 100000 |
| NCC(Cn1ncn(-c2cccc(-c3ccc(C(=O)N4CCOCC4)cc3)n2)c1=O)=C(F)F [Example 214, 2-[2-(aminomethyl)-3,3-difluoro-allyl]-4-[6-[4-(morpholine-4-carbonyl)phenyl]-2-pyridyl]-1,2,4-triazol-3-one Trifluoroacetate] | – | – | – | – | 1.7 | > 100000 | > 100000 | 940 |
| NCC(Cn1ncn(Cc2ccc(OCc3ccccc3)cc2)c1=O)=C(F)F [Example 96, 2-[2-(aminomethyl)-3,3-difluoro-allyl]-4-[(4-benzyloxyphenyl)methyl]-1,2,4-triazol-3-one Trifluoroacetate] | 13 | > 100000 | 220 | > 100000 | – | – | – | – |

The remaining lines, values ahead:

| IC50 [1, 5] [nM] | IC50 ([2]; 0.5 mM tyramine) [nM] | IC50 ([3]; 1 mM benzylamine) [nM] | IC50 ([4]; 1 mM putrescine) [nM] | IC50 [1, 6] [nM] | IC50 ([2]; 0.5 mM tyramine substrate) [nM] | IC50 ([3]; 1 mM benzylamine substrate) [nM] | IC50 ([4]; 1 mM putrescine substrate) [nM] | SMILES |
| --- | --- | --- | --- | --- | --- | --- | --- | --- |
| – | – | – | – | 1.3 | > 100000 | 28000 | > 100000 | NCC(Cn1ncn(Cc2ccc(-c3cccc(-c4nc[nH]n4)c3)s2)c1=O)=C(F)F [Example 185, 2-[2-(aminomethyl)-3,3-difluoro-allyl]-4-[[5-[3-(1H-1,2,4-triazol-3-yl)phenyl]-2-thienyl]methyl]-1,2,4-triazol-3-one Trifluoroacetate] |
| 4.9 | > 100000 | > 100000 | 480 | – | – | – | – | CS(=O)(=O)c1ccc(-c2ccnc(-n3cnn(CC(CN)=C(F)F)c3=O)c2)cc1 [Example 54, 2-[2-(aminomethyl)-3,3-difluoro-allyl]-4-[4-(4-methylsulfonylphenyl)-2-pyridyl]-1,2,4-triazol-3-one Trifluoroacetate] |
| 1.2 | > 100000 | 700 | 2500 | – | – | – | – | NCC(Cn1ncn(CCc2ccc(-c3ccc4c(c3)OCO4)s2)c1=O)=C(F)F [Example 177, 2-[2-(aminomethyl)-3,3-difluoro-allyl]-4-[2-[5-(1,3-benzodioxol-5-yl)-2-thienyl]ethyl]-1,2,4-triazol-3-one Trifluoroacetate] |
| – | – | – | – | 0.7 | > 100000 | > 100000 | > 100000 | CCn1cc(-c2ccc3sc(Cn4cnn(CC(CN)=C(F)F)c4=O)cc3c2)ccc1=O [Example 207, 5-[2-[[1-[2-(aminomethyl)-3,3-difluoro-allyl]-5-oxo-1,2,4-triazol-4-yl]methyl]benzothiophen-5-yl]-1-ethyl-pyridin-2-one Trifluoroacetate] |
